Tests used:
Type in all cases: cell-based
HIVIIIB in MT4 cells = experiment: Inhibition of cultured HIV-IIIB in MT4 cells (MTT assay); conditions: Human immunodeficiency virus 1, 120 h, 70% loaded, 5 days, read-out: IC50 (nM), Table 11
Procedure: HIVIIIB and the human T-cell line, MT4, were supplied by the National Institute for Biological Standards and Control (NIBSC), the Centre for AIDS Reagents (CFAR: Hertfordshire, Uk). MT4 cells were grown and routinely maintained in RPMI-1640 (Sigma; Dorest, Uk) supplemented with 10% fetal bovine serum (FBS; Bio-Whittaker, Berkshire, Uk) at 37° C. and 5% CO2 and sub-cultured every 3 days. Cell counts and viability was determined by Trypan Blue exclusion using a disposable plastic haemocytometer (Labtech International Ltd, UK). HIVIIIB was propagated by passage through MT4 cells in RPMI-1640 and 10% FBS for 12 days and a subsequent multiplicity of infection (MOI) was determined by MTT assay.
MT4 cells were dispensed into 50 ml falcon tubes and centrifuged at 2000 rpm and 4° C. for 5 minutes. The supernatant was aspirated and the resulting pellet resuspended to a cell density of 1×10^5/ml in RPMI 1640 supplemented with 10% FBS and 1 ml of viral isolate (M.O.I 0.001). After further centrifugation for 5 minutes at 2000 rpm, the MT4/HIVIIIB pellet was incubated at 37° C. and 5% CO2 for 2 hours. […]
Following incubation for 5 days of MT4/HIVIIIB with nano formulated EFV at 37° C. and 5% CO2. […] Absorbance was read at 570 nm on a plate reader (Tecan Magellan, Austria).

[1] = ATP cell viability assay (CellTiter-Glo) cytotoxicity; conditions: human, THP-1 (monocyte) cells
[2] = as above; conditions: human
From the text: HepG2 (hepatic) and Caco-2 (intestinal) cells were purchased from American Type Tissue Culture (ATCC; USA) and maintained in Dulbecco's modified eagle's medium (DMEM; Sigma; Dorest, Uk) supplemented with 10% fetal bovine serum (FBS; Bio-Whittaker, Berkshire, Uk) for HepG2 and 15% FBS for Caco-2. CEM (lymphocyte) and THP-1 (monocyte) cells were purchased from European Collection of Cell Culture (ECACC; Porton Down, Uk) and grown in RPMI-1640 (Sigma; Dorest, Uk) supplemented with 10% FBS. All cell lines were incubated at 37° C. and 5% CO2 and for adherent cells (HepG2 and Caco-2) were routinely sub-cultured every 4 days when 95% confluent. Suspension cells (CEM and THP-1) were routinely sub-cultured when a density of 1×10^6 cells/ml was achieved. Cell count and viability was determined by Trypan Blue exclusion assay.
HepG2, Caco-2, THP-1, CEM and A-THP-1 cells were separately seeded at a density of 2.5×10^4/100 μl in their appropriate media into each well of a 96 well plate (Nunclon™, Denmark) and incubated for 24 hours at 37° C. and 5% CO2. […]
Prior to starting viability assays, all reagents were made fresh and in accordance to manufacturer's instructions and allowed to equilibrate to room temperature immediately before use. […] Luminescence was then measured using a Tecan Genios plate reader (Tecan; Austria).

[3] = as above; conditions: human, A-THP-1 (PMA-activated THP-1, macrophage like) cells
Procedure: Cells were then incubated at 37° C. and 5% CO2 for 7 days prior to use to allow differentiation from monocyte to macrophage like cells.
The same procedure was followed for each individual excipient (23 samples) with concentrations range of 1 μM to 1 M.
Prior to starting viability assays, all reagents were made fresh and in accordance to manufacturer's instructions and allowed to equilibrate to room temperature immediately before use. After 24 hours incubation, 96 well plates were removed from the incubator and the plate and its contents allowed too equilibrate to room temperature for approximately 30 minutes. After 30 minutes, 80 μl of media was aspirated from each individual well and 20 μl CellTiter-Glo® Reagent (Promega, UK) was added to the remaining media and cells. The contents were then mixed for 2 minutes on an orbital shaker to induce cell lysis. The plate was then further incubated at room temperature for 10 minutes to stabilise luminescent signal. Luminescence was then measured using a Tecan Genios plate reader (Tecan; Austria).

O=C1Nc2ccc(Cl)cc2[C@@](C#CC2CC2)(C(F)(F)F)O1 [Aqueous solution, efavirenz]
IC50 (HIVIIIB in MT4 cells): 71 nM | IC50 at 24 h [1]: 29 µM | IC50 at 24 h ([2]; CEM (lymphocyte) cells): 40 µM | IC50 at 24 h ([2]; HepG2 (hepatic) cells): 33 µM | IC50 at 24 h [3]: 29 µM
